Reference: patent US20190134129A1, “METHOD FOR ALLEVIATING ULTRAVIOLET DAMAGE WITH ETHYL ACETATE-EXTRACTED PRODUCT OF SEDUM FORMOSANUM” (Sinotai Oncology Associate., Ltd., priority 2017, published 2019)

System: HaCaT cells
Experiment: Apoptosis assay (FITC Annexin V/PI) of UV- or X-ray-irradiated HaCaT cells
Type: cell-based, human
Settings: UV 50 mJ/cm^2, 48 hours
From the text: A. Test Sample Pretreatment and Irradiation Treatment

Compound | Apoptosis percentage (%) (125 μg/mL pretreatment) | Apoptosis percentage (%) (250 μg/mL pretreatment)
O=c1c(O[C@@H]2O[C@H](CO)[C@@H](O)[C@H](O)[C@H]2O)c(-c2ccc(O)cc2)oc2cc(O)cc(O)c12 [astragalin] | 22.37 ± 3.32 | 69.07 ± 5.07
O=c1cc(-c2ccc(O)cc2)oc2c([C@@H]3O[C@H](CO)[C@@H](O)[C@H](O)[C@H]3O)c(O)cc(O)c12 [vitexin] | 20.00 ± 0.73 | 70.93 ± 1.52
